Data set [1] concerns HEL. The experiment in a line: Antitumor activity against human HEL cells xenografted in BALB/C nude mouse assessed as tumor growth at 10 mg/kg, ip bid treated for 21 consecutive days relative to control. It counts as functional. A general note: A xenograft is tissue or cells of one species grown in another, often human tumour cells in immunodeficient mice.
Data set [2] relates to HEL. In words: Antitumor activity against human HEL cells xenografted in BALB/C nude mouse assessed as tumor growth inhibition at 10 mg/kg, ip bid treated for 21 consecutive days relative to control. The data set is classed as functional. The settings on record: read-out: TGI.
For data set [3], the system named is HEL. The experiment in a line: Antitumor activity in human HEL cells xenografted in SCID mouse assessed as mouse survival time at 10 mg/kg, ip qd. It counts as functional.
The test system of data set [4] is HEL. The experiment in a line: Cell cycle arrest in human HEL cells assessed as accumulation at S phase at 5 uM after 48 hrs propidium iodide staining based flow cytometry relative to control. The data set is classed as functional. Background: A flow cytometer gives signals particle by particle.
Data set [5] deals with Candida albicans. In words: Antibiofilm activity against FLC resistant Candida albicans 0304103 assessed as inhibition of biofilm formation pre-incubated with 64 ug/ml FLC for 90 mins followed by further incubation with compound at 16 ug/ml for 24 hrs by XTT reduction assay. It counts as functional.
Data set [6] addresses Non-receptor tyrosine-protein kinase TYK2 (Homo sapiens, UniProt P29597). The experiment in a line: Inhibition of TYK2 (unknown origin) using FAM-labeled peptide as substrate preincubated for 10 mins followed by substrate addition and measured after 25 mins in presence of ATP.
In data set [7] the test system is HEL. The experiment in a line: Induction of apoptosis in human HEL cells after 48 hrs by Annexin-V-FITC/propidium iodide staining based flow cytometry. The data set is classed as functional, cell-based.
Data set [8] deals with Candida albicans. The experiment in a line: Antifungal activity against FLC resistant Candida albicans 0304103 at 32 ug/ml up to 24 hrs in presence of fluconazol by checkerboard microdilution method. It counts as functional, organism-based. On the technique in general: Dilution methods test growth across graded concentrations, often in twofold steps.
Data set [9] addresses Histone deacetylase (Homo sapiens) (UniProt Q13547+O15379+Q9UBN7+Q92769+Q9UQL6+Q8WUI4+Q9BY41+Q96DB2+P56524+Q9UKV0+Q969S8). In words: Inhibition of HDAC in human HEL cells assessed as increased in histone H4 acetylation after 24 hrs by Western blot analysis. It counts as cell-based.
The subject of a further data set is Mus musculus. The experiment in a line: Protection against spleen enlargement in SCID mouse xenografted with human HEL cells at 10 mg/kg, ip qd. It counts as functional, organism-based.
In data set [10] the test system is HEL. The experiment in a line: Cell cycle arrest in human HEL cells assessed as accumulation at S phase at 10 uM after 48 hrs propidium iodide staining based flow cytometry relative to control. The data set is classed as functional.
Data set [11] relates to HEL. In words: Cell cycle arrest in human HEL cells assessed as accumulation at G2/M phase at 1 uM after 48 hrs propidium iodide staining based flow cytometry (reference value: 9.32%). It counts as functional.
Data set [12] concerns HEL. In words: Cell cycle arrest in human HEL cells assessed as accumulation at G2/M phase at 5 uM after 48 hrs propidium iodide staining based flow cytometry (reference value: 9.31%). The data set is classed as functional.
The test system of data set [13] is HEL. The experiment in a line: Cell cycle arrest in human HEL cells assessed as accumulation at S phase at 1 uM after 48 hrs propidium iodide staining based flow cytometry relative to control. The data set is classed as functional.
Data set [14] can be described thus: AUC (0 to infinity) in Sprague-Dawley rat at 10 mg/kg, ip by LC-MS/MS analysis. The settings on record: in vivo. The data set is classed as ADME, organism-based. Details: dose 10 mg/kg, route intraperitoneal, time infinity.
Data set [15] in a line: Tmax in Sprague-Dawley rat at 10 mg/kg, ip by LC-MS/MS analysis. The data set is classed as ADME, organism-based. Particulars: in vivo.
The subject of data set [16] is HEL. In words: Antitumor activity in human HEL cells xenografted in SCID mouse assessed as increase in mouse survival at 10 mg/kg, ip qd measured on day 32. Particulars: 768 h. It counts as functional.
Data set [17] in a line: Half life in Sprague-Dawley rat at 10 mg/kg, ip by LC-MS/MS analysis. Particulars: in vivo. It counts as ADME, organism-based.
For another data set, the system named is Rattus norvegicus. The experiment in a line: Clearance in Sprague-Dawley rat at 10 mg/kg, ip by LC-MS/MS analysis. The data set is classed as ADME, organism-based. Particulars: in vivo.
Data set [18] can be described thus: Cmax in Sprague-Dawley rat at 10 mg/kg, ip by LC-MS/MS analysis. The data set is classed as ADME, organism-based. Details: dose 10 mg/kg, route intraperitoneal. Particulars: in vivo.

Active and inactive are the calls of the source. The rule behind the calls is not given here.

Non-receptor tyrosine-protein kinase TYK2, sequence (P29597 whole entry): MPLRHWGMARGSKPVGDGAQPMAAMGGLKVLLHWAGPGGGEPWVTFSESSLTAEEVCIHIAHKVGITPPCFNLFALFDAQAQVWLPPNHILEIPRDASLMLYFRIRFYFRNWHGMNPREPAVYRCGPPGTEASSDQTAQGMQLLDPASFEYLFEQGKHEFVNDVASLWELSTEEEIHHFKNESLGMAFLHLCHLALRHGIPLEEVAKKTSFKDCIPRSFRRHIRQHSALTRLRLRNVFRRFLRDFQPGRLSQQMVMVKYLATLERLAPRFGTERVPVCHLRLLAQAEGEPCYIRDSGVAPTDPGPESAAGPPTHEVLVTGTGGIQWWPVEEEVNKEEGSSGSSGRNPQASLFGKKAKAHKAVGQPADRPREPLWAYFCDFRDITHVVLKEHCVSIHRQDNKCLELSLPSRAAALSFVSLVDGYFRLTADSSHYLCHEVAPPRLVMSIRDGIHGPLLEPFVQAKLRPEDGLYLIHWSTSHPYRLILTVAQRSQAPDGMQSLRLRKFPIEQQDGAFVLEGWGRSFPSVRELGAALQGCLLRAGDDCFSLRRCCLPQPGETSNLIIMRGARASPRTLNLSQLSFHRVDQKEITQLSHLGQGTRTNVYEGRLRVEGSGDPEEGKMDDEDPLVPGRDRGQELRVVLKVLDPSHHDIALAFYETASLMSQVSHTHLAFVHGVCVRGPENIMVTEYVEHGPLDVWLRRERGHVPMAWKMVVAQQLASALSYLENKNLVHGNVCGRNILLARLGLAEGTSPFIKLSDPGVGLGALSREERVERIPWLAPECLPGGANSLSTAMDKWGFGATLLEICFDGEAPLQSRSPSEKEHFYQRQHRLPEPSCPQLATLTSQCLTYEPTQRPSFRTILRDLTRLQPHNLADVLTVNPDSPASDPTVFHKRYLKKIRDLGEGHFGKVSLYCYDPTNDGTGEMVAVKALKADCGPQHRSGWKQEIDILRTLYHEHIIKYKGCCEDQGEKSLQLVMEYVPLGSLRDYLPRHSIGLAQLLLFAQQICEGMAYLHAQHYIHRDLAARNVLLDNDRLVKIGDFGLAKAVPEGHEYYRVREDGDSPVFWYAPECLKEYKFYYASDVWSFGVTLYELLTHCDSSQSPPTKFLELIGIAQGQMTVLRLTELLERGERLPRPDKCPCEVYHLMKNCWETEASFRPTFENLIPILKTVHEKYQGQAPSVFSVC

What is called T/C is the ratio of treated to control. One may read the IC50 as the concentration that inhibits the measured activity by half. Consider `O=C(NO)c1ccc(-c2ccnc(Nc3ccc(N4CCOCC4)cc3)n2)cc1`, for which, in the data set on HEL [1], the T/C is on record as 41.1%. The inhibition in vivo at 10 mg/kg with HEL [2] was determined as 59.9%. For the same molecule, the Survival with HEL [3] was determined as 27 days. For the same molecule, the Activity with HEL [4] is 18.9%; with HEL [7], “Dose-dependent effect”; in the data set with HEL [10] it was 48.68%. In the data set with Candida albicans [5], the “inhibition (INH)” value came out at 30%. Further, the IC50 in data set [6] came out at 419 nM. For the same molecule, the outcome in the data set with Candida albicans [8] and with Mus musculus was Active. In addition, in data set [9], the inhibition entry was “Dose-dependent effect”.

As to `CS(=O)(=O)Nc1ccc(-c2ccnc(Nc3ccc(N4CCC(C(=O)NCCCCCCCC(=O)NO)CC4)cc3)n2)cc1`, the Activity in the data set with HEL [11] was 8.23%; with HEL [12], 8.12%; with HEL [4], 34.37%; with HEL [7], “Dose-dependent effect”; with HEL [13] it was 25.56%. The Survival in the data set on HEL [3] is 27 days. In addition, the IC50 in data set [6] was determined as 74 nM. Besides, the outcome in the data set with Candida albicans [8] and in the data set on Mus musculus was Active. The inhibition entry in [9] was “Dose-dependent effect”.

By AUC(0-inf) is commonly meant total exposure, with the tail of the curve extrapolated. High values mean high exposure, low ones low exposure. As a reminder, the Tmax is the time from dosing to the highest level. For orientation: half-life means how long it takes for the measured level to halve. Higher therefore signals slow loss. In general, Cmax refers to the highest concentration seen after dosing. Molecule `CS(=O)(=O)Nc1ccc(-c2ccnc(Nc3ccc(N4CCC(C(=O)Nc5ccc(/C=C/C(=O)NO)cc5)CC4)cc3)n2)cc1` returned a total exposure AUC(0-inf) in data set [14] of 4470 ng·h/mL. In addition, the Tmax in data set [15] was 0.5 h. The survival at 10 mg/kg in the data set with HEL [16] amounted to 37.5%. Moreover, the Activity with HEL [11] was 11.75%; with HEL [12], 28.14%; in the data set with HEL [7] it was “Dose-dependent effect”. The “inhibition (INH)” value with Candida albicans [5] amounted to 30%. In addition, the half-life in data set [17] is 5.14 h. Further, the IC50 in data set [6] was determined as 46 nM. Moreover, the outcome with Candida albicans [8] and in the data set on Mus musculus was Active. Also, the inhibition entry in [9] was “Dose-dependent effect”. In the data set on Rattus norvegicus, the clearance amounted to 37.4 mL/min/kg. In data set [18], this molecule registered a Cmax of 1600 ng/mL.

For the origin of these results see ChEMBL document CHEMBL4145634, “Discovery of Janus Kinase 2 (JAK2) and Histone Deacetylase (HDAC) Dual Inhibitors as a Novel Strategy for the Combinational Treatment of Leukemia and Invasive Fungal Infections” (J Med Chem, 2018).
